Source: paper PMC12521527, “In vivo self-assembled nano-PROTAC for the dual degradation of AR and HSP90 to overcome castration-resistant prostate cancer resistance” (Signal Transduction and Targeted Therapy, 2025)

Tested on: 22Rv1 xenograft tumor
Assay: Antitumor efficacy in 22Rv1 xenograft mice
Assay type: in vivo, BALB/c nude mice
Details: comparison study, n = 6; for tumor volume: 20 days, Psa-AR 30 mg/kg i.v. every 2 days x5, enzalutamide 25 mg/kg, pimitespib 15 mg/kg, PBS 1017 mm^3; for median survival: PBS 21 days
Description: To evaluate the therapeutic potential and superiority of Psa-AR in prostate cancer, we established subcutaneous xenograft tumor models using AR-mutant 22Rv1 cells.[51] All procedures strictly complied with the Guide for the Care and Use of Laboratory Animals and were approved by the Committee for Animal Research of the National Center for Nanoscience and Technology. When the tumor volume reached ~100 mm³, 22Rv1-bearing mice were randomized into three groups (n = 6/group): the PBS control, Psa-AR, and P-AR groups. Treatments were administered via tail vein injection every other day for five cycles. The tumor volume and body weight were monitored every other day for 20 days (Fig. 6a). […] The individual tumor growth curves for each group are presented in Supplementary Fig. 20. No obvious body weight loss was observed during treatment (Fig. 6c). […] To elucidate the mechanistic basis of tumor suppression, we quantitatively assessed AR and HSP90 protein expression in excised tumor tissues through IF. […] This dual-target degradation profile directly correlates with the observed therapeutic efficacy, validating the assembly driven target engagement and degradation strategy. […] To address the critical limitations of conventional PROTACs, particularly the Hook effect-induced nonlinear pharmacokinetics and narrow therapeutic window. We rigorously evaluated the dose-responsive antitumor efficacy of Psa-AR in 22Rv1 xenograft models. Mice bearing subcutaneous tumors received escalating doses (10, 20, or 30 mg/kg) via intravenous administration every 48 h for five consecutive treatment cycles. The tumor volume and body weight were evaluated for 20 days. Tumor volume was suppressed in a dose-dependent manner, with a mean tumor volume of […], a mean tumor volume of 536 mm^3 at 20 mg/kg and a mean tumor volume of 220 mm^3 at 10 mg/kg (Fig. 6h). The individual tumor growth curves for each group are presented in Supplementary Fig. 21. […] IF analysis of tumor sections provided spatially resolved dose-dependent quantification of AR and HSP90 proteolysis. […] Collectively, the dose-dependent tumor suppression and coordinated target proteolysis observed in the 22Rv1 xenograft model mechanistically validated the therapeutic superiority of in situ self-assembled Psa-AR. To systematically evaluate the therapeutic advantages of the dual-protein targeting strategy of Psa-AR through simultaneous degradation of AR and HSP90 in overcoming tumor drug resistance, this study compared the antitumor efficacy of Psa-AR with that of current clinical regimens (including the AR inhibitor enzalutamide, the HSP90 inhibitor pimitespib, and their combination) in 22Rv1 xenograft models (Fig. 7a). The experimental protocol was designed as follows: When the tumor volume reached ~100 mm³, the tumor-bearing mice were
Fig. 6 In vivo antitumor efficacy of Psa-AR. a Schematic illustration of the tumor inoculation and treatment protocol for 22Rv1 xenograft mice. (n = 6 per group) b Observation of the tumor inhibitory effect on 22Rv1 xenograft mice in PBS, P-AR, or Psa-AR (20 mg/kg in 200 μL of PBS) over 20 days of treatment. c Body weight changes in 22Rv1 xenograft mice in different treatment groups over 20 days. d Kaplan‒Meier survival curves of 22Rv1 xenograft mice in different groups over 20 days of treatment. e Immunofluorescence analysis of AR protein levels in 22Rv1 tumor tissues after treatment with PBS, P-AR, or Psa-AR (20 mg/kg in 200 μL of PBS) for 20 days. Scale bar: 20 μm. f Immunofluorescence analysis of the HSP90 protein levels in 22Rv1 tumor tissues after treatment with PBS, P-AR, or Psa-AR (20 mg/kg in 200 μL of PBS) for 20 days. Scale bar: 20 μm. g Terminal deoxynucleotidyl transferase (TdT) dUTP nick-end labeling (TUNEL) staining of tumors after treatment with PBS, P-AR, or Psa-AR (20 mg/kg in 200 μL of PBS) for 20 days. […]

Row | SMILES | tumor volume [mm^3] | median survival [days]
1 | CNC(=O)c1ccc(N2C(=S)N(c3ccc(C#N)c(C(F)(F)F)c3)C(=O)C2(C)C)cc1F [enzalutamide, reference compound] | 765 | 27
2 | CCc1cc(C(N)=O)ccc1-n1nc(C(C)C)c2c(-n3cnc(-c4cnn(C)c4)c3)ccnc21 [pimitespib, reference compound] | 742 | 29
